Paper PMC5007978, “A chemical with proven clinical safety rescues Down-syndrome-related phenotypes in through DYRK1A inhibition” (Disease Models & Mechanisms, 2016)

Legend:
[1] = system: calcineurin-NFAT signaling; experiment: NFAT-RE promoter luciferase reporter assay (NRE-Luc) in 293T cells; type: cell-based; conditions: IM and PMA (10 nM), 1, 3 and 10 μM
Protocol: Fig. 5. […] Firefly luciferase activities were measured using One-Glo reagents. Luciferase activity in the sample with reporter plasmid alone was set to 1, and the relative luciferase activities were calculated. Means±s.d. were determined from two independent experiments.
Treatment with IM and phorbol 12-myristate 13-acetate (PMA) induced a dramatic increase in luciferase activity (∼20 fold) as a result of the nuclear translocation of NFATc1 and the subsequent transcriptional activation (Fig. 5B). In this situation, the overexpression of DYRK1A suppressed the stimulatory effect of IM and PMA by 75%, resulting in a 4.5-fold increase in luciferase activity compared with that of the control (Fig. 5B).
The firefly luciferase reporter assay was performed using a One-Glo Assay System (Promega) according to the manufacturer's instructions. The transcriptional activity of NFATc1 in 293T cells was measured with a reporter vector (pGL4.30 luc2P/NFAT-RE/Hygro) (Promega) that expresses the firefly luciferase gene under the control of an NFAT-RE promoter. 293T cells were transfected with the DYRK1A-expressing plasmid and reporter plasmid. On the next day, cells were treated with IM (2.5 μM) and phorbol-12-myristate-13-acetate (10 nM) along with the indicated amounts of inhibitors. Cells were further incubated for 8 h and then cell lysates were harvested to measure luciferase activity.

[2] = target: T1, DYRK1A (Homo sapiens, UniProt Q13627); experiment: DYRK1A-mediated Tau (T212) phosphorylation in transfected 293T cells, western blot; type: cell-based; set-up: expressed in transfected cells; host or cells: 293T cells; conditions: 6 h treatment, western blot, estimated, read-out: IC50 on Tau phosphorylation (T212) induced by DYRK1A overexpression
[3] = target: T1, DYRK1A; set-up: expressed in transfected cells; host or cells: 293T cells; method as in Ogawa et al., 2010; conditions: ref Ogawa et al., 2010; cited from earlier work
[4] = target: T2, DYRK4 (Homo sapiens, UniProt Q9NR20); experiment: In vitro kinase assay, recombinant human DYRK4 (Life Technologies); type: biochemical
T2 construct: purchased Life Technologies (Kinase Profiler service)
T2 sequence (Q9NR20 1-520): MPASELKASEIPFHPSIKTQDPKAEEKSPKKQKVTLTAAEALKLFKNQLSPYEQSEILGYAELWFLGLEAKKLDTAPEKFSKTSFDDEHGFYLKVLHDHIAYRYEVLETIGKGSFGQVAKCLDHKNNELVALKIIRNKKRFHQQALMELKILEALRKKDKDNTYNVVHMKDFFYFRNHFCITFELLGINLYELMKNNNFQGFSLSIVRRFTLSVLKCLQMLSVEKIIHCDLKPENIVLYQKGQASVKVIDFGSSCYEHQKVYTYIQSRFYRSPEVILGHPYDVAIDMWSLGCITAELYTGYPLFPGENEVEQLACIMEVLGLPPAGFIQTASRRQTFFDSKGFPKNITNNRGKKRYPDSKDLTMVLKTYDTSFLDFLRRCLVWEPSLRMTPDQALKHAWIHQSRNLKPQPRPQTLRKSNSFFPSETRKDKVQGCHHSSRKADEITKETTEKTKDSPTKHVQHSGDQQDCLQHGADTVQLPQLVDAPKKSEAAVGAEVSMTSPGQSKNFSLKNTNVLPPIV

[5] = target: T3, DYRK3 (Homo sapiens, UniProt O43781); experiment: In vitro kinase assay, recombinant human DYRK3 (Life Technologies); type: biochemical
T3 construct: purchased Life Technologies (Kinase Profiler service)
T3 sequence (O43781 1-588): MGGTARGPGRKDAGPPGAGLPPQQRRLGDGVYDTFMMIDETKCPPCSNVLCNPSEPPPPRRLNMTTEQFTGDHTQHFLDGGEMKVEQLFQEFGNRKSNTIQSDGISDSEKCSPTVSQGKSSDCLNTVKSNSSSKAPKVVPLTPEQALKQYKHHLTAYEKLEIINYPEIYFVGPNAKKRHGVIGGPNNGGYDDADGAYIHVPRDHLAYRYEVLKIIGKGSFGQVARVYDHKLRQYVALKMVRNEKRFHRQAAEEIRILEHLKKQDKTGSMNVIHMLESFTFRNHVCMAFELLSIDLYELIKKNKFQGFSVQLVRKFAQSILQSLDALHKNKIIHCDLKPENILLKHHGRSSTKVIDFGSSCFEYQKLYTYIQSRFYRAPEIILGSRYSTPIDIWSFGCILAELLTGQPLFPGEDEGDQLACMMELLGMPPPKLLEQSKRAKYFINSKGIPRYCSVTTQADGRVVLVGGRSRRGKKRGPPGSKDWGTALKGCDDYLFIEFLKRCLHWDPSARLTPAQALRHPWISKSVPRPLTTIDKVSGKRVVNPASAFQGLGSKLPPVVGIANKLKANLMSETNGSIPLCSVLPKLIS

[6] = system: mnb-overexpressing Drosophila; experiment: Wing vein (LV5) defect rescue in mnb-overexpressing flies (MS1096-gal4); type: in vivo, Drosophila melanogaster

SMILES | NFATc1-dependent transcriptional activation (NRE-Luc) suppressed by DYRK1A overexpression [1] | IC50 [2] [nM] | DYRK1A inhibitory activity compared with harmine [3] | IC50 [4] [nM] | IC50 [5] [nM] | concentration required for a similar rescue of wing (LV5) defect [6] [µM]
CCN1/C(=C/C(C)=O)Sc2ccc(OC(C)=O)cc21 [proINDY] | dose-dependently derepressed | ~2000 | slightly weaker inhibitory activities than harmine | – | – | –
COc1ccc2c(c1)[nH]c1c(C)nccc12 [harmine] | dose-dependently derepressed | – | – | 5880 | 563 | 10 to 25
CCN1/C(=C/C(C)=O)Sc2ccc(O)cc21 [INDY] | dose-dependently derepressed | – | slightly weaker inhibitory activities than harmine | – | – | –
